{"source": "patent US20260297035A1", "about": "“PROTEIN KINASE INHIBITORS AND USES THEREOF” (DELiver Therapeutics, Inc., priority 2023, published 2026)", "key": {"ABL1 T315I": {"target": "T1, ABL1 T315I (Homo sapiens, UniProt P00519, T315I)", "T1 construct": "The ABL1 variant polypeptides utilized contained the same polypeptide as the “isoahABL1(wt)” polypeptide except that each contained one corresponding amino acid substitution", "test": "Z′-LYTE assay, ABL1 T315I", "assay_type": "biochemical", "text": "(§1) This Example describes a cell-free assay utilized to identify candidate compounds that bind to and inhibit protein kinase (PK) and PK variants. One assay is referred to as a “Z′-LYTE assay” and is an example of a labeled peptide cleavage assay. The fluorescence-based assay relies on the differential sensitivity of a small, dual-end-labelled peptide to cleavage by a protease, dependent on the phosphorylation state of the peptide (FIG. 1). The peptide substrate is end-labelled with two distinct fluorophores that comprise a Fluorescence Resonance Energy Transfer (FRET) pair.\n(§2) In the absence of inhibitor, the kinase transfers the gamma-phosphate from ATP to the single, unique tyrosine, serine or threonine in the synthetic FRET peptide. The reaction conditions are titrated such that 10-40% of the peptide substrate is phosphorylated. In a second reaction, a site-specific protease that only recognizes and cleaves the non-phosphorylated FRET peptide is added. Cleavage interferes with FRET between the donor (i.e., coumarin) and the acceptor (i.e., fluorescein) fluorophores on the FRET-peptide substrate, unlike the phosphorylated, uncleaved peptide.\n(§3) The Test Compounds are screened in 1% DMSO (final) in the well.\n(§4) All Peptide/Kinase Mixtures are diluted to a 2× working concentration in the appropriate Kinase Buffer. The 2×ABL1 polypeptide/Tyr 02 substrate peptide mixture is prepared in 50 mM HEPES pH 7.5, 0.01% BRIJ-35, 10 mM MgCl2, 1 mM EGTA. The final 10 μL Kinase Reaction contains 0.3-1.2 ng ABL1 (or 1.36-6 ng ABL1(T315I)) and 2 μM Tyr 02 in 50 mM HEPES, pH 7.5, 0.01% BRIJ-35, 10 mM MgCl2, 1 mM EGTA. After the 1-hour Kinase Reaction incubation, 5 μL of a 1:128 dilution of Development Reagent A is added. The ABL1(wt) polypeptide utilized for the assay described in this Example was the “isoahABL1(wt)” polypeptide described herein (SEQ ID NO:4), which is referred to as “ABL1” in Table 1 and “ABL1(wt)” or “WT” in Table 3 of this Example. The ABL1 variant polypeptides utilized contained the same polypeptide as the “isoahABL1(wt)” polypeptide except that each contained one corresponding amino acid substitution chosen from E255K, F317I, F317L, G250E, T315I or Y253F. […]\n(§5) All ATP Solutions are diluted to a 4× working concentration in Kinase Buffer (50 mM HEPES, pH 7.5, 0.01% BRIJ-35, 10 mM MgCl2, 1 mM EGTA). The ATP Km apparent (Km app) is previously determined using a Z′-LYTE assay.\n(§6) Bar-coded Corning, low volume NBS, black 384-well plate (Corning Cat. #4514) • 1. […] Read on fluorescence plate reader and analyze the data"}, "K562": {"tested_on": "K562", "test": "In vitro cytotoxic activity (CellTiterGlo), K562 (CML)", "assay_type": "cell-based", "details": "Homo sapiens, 48-hours, read-out: K562 LD50", "protocol": "(§7) Non-metabolized targeted toxicity, or general toxicity, of compounds was assessed by treating a panel of selected cell lines in culture with a dilution series of test compounds and the lethal dose that will kill half of the cells (i.e., the LD50) was determined. Compounds herein were assayed against a panel of cytokine-independent Philadelphia chromosome (BCR-ABL1 translocation) positive (Ph+) leukemia and lymphoma cell lines along with several control cell lines that were ABL1-independent. The panel included murine cell lines BaF3-wildtype (wt), BaF3-mutants (BaF3-wt cells engineered to be reliant on various kinase domain mutations with the BCR-ABL1 fusion protein), and various ALL and CML human cell lines, including SD-1, TOM-1, NALM-21, K562, Jeko-1, BV173, and KCL-22.\n(§8) To test the cytotoxic activity of compounds herein, 1.6E4 cells were plated in 96-well plates at a final volume of 135 μL per well. Compounds were then added to the wells. In general, final concentrations of compounds started at a maximum concentration of […] and were diluted by half-log concentrations down to a final concentration of 0.316 nM. However, different cell lines required varying drug concentration ranges for optimal LD50 calculations. To create half-log dilutions, 40 mM DMSO solutions of compounds were diluted in half-log iterations to generate 400× starting concentration of compounds in DMSO. The 400× compound solutions were then diluted by 40-fold by adding 5 μL of 400× DMSO stock to 195 μL cell culture media, generating 10× drug concentrations in cell culture media. Then 15 μL of the 10× drug solutions were added to the 135 μL volume of cell suspension, resulting in 1× final drug concentrations with 0.25% DMSO in all wells. 48-hours after adding compounds, cells were measured for relative viability to generate cytotoxicity curves associated with the varying concentrations of compounds. […] LD50 values were measured by normalizing luminescence intensity to the lowest drug concentration. GraphPad Prism was used to plot and calculate LD50 values from the cytotoxic kill curves. Curves were fit to a non-linear regression model, with compound concentration vs. response and variable slope (four parameters)."}, "ABL1(wt)": {"target": "ABL1(wt) (Homo sapiens, UniProt P00519)", "test": "Z′-LYTE assay (labeled peptide cleavage), ABL1(wt)", "assay_type": "biochemical", "text": "as §1, §2, §3, §4, §5, §6\nA known inhibitor control standard curve, 10-point titration, is run for each individual kinase on the same plate as the kinase to ensure the kinase is inhibited within an expected IC50 range previously determined. […]"}, "NALM-21": {"tested_on": "NALM-21", "test": "In vitro cytotoxic activity (CellTiterGlo), NALM-21 (ALL)", "assay_type": "cell-based", "details": "Homo sapiens; 48-hours; read-out: NALM-21 LD50", "protocol": "as §7, §8"}}, "note": "Like-named read-outs stand apart in the source and are kept apart here.", "data": [{"compound": "Cc1ccc(Nc2ncc3cccc(-c4ccc(F)cc4OC(C)C)c3n2)cc1NC(=O)c1ccc(C(=O)N(C)C)cc1", "note": "[Cmpd11, N1-(5-((8-(4-fluoro-2-isopropoxyphenyl)quinazolin-2-yl)amino)-2-methylphenyl)-N4,N4-dimethylterephthalamide]", "values": [{"measurement": "IC50", "setting": "ABL1 T315I; class by IC50 values in Table 5, read-out: inhibitor class of ABL(T315I) according to IC50", "value": "< 20", "unit": "nM"}, {"measurement": "IC50", "setting": "ABL1 T315I; test compounds, Z′-LYTE, read-out: IC50 values for test compounds, ABL1(T315I)", "value": 1.89, "unit": "nM"}, {"measurement": "IC50", "setting": "K562", "value": 403, "unit": "nM"}, {"measurement": "IC50", "setting": "ABL1(wt); class by IC50 values in Table 5, read-out: inhibitor class of ABL1(wt) according to IC50", "value": "< 20", "unit": "nM"}, {"measurement": "IC50", "setting": "ABL1(wt); test compounds, Z′-LYTE, read-out: IC50 values for test compounds, ABL1(wt)", "value": 2.93, "unit": "nM"}, {"measurement": "IC50", "setting": "NALM-21", "value": 446, "unit": "nM"}]}]}
